Laboratory results published in US8003343B2, “Method for determining diamine oxidase” (Sciotec Diagnostic Technologies GmbH, priority 2005, dated 2011).

Target: diamine oxidase (DAO; EC 1.4.3.6) (Homo sapiens, UniProt P19801)
Test: biochemical
Experimental: The sample is contacted and mixed with the given amount of diamine preferably dissolved in an aqueous solution. It is, of course, also possible to directly add a given amount of diamine to a defined amount of sample (e.g. in crystal form). […] After having incubated this mixture for a fixed period during which the diamine contained in the aqueous solution is degraded in the presence of DAO as a function of the amount of the latter, the diamine remaining in the mixture is derivatized by 95%, preferably 99%, even more preferred 99.5%, in particular 100%. The incubation conditions must be selected such that the DAO possibly present in the sample is able to convert the present diamine. DAO is an enzyme which converts diamine substrates such as, e.g. histamine, at such reaction rates that the incubation time will preferably last for at least 30 minutes.
FIG. 3 depicts the relative enzymatic activity of a defined amount of DAO in a sample as a function of the amount of histamine used.

diamine oxidase (DAO; EC 1.4.3.6), sequence (P19801 20-751, species assumed): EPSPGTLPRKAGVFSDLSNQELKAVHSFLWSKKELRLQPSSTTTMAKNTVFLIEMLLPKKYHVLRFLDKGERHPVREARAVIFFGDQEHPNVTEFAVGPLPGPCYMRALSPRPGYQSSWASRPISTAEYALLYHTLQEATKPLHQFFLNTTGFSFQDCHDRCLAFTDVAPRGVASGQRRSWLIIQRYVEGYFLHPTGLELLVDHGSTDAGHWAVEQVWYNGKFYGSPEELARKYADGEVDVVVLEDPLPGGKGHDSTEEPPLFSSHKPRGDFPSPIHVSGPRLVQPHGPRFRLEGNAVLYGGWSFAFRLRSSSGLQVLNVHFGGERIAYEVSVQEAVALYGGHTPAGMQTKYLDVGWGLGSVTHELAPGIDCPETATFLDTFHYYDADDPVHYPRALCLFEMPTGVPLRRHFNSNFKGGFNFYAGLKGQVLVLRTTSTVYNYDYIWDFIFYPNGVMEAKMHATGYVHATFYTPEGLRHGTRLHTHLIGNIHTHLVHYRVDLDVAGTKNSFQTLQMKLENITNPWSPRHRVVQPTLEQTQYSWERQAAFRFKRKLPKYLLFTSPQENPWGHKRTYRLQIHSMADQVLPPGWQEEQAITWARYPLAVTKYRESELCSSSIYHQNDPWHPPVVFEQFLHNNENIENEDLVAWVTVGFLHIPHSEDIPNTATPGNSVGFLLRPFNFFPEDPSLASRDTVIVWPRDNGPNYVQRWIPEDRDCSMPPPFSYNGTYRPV

inhibition of DAO (addition of at least 100 μM histamine): at least partially inhibited | inhibition at 500 µM (read-out: inhibition of DAO): ~60%
Compound: NCCc1c[nH]cn1 [histamine, 1H-imidazole-4-ethylamine]
